Assay results reported in the C3SDB collision cross section collection.
Several values for one entry are separate records, joined by “and”; a condition that tells them apart may be missing. Equal entries are not always repeated.

Assays:
[1] = instrument: DT, stepped-field
[2] = instrument: DT, single field, calibrated with Agilent tune mix (Agilent)

Cn1cnc2ncnc-2c1N [1-Methyladenine]
collision cross section (N2) ([1]; [M+H]+): 128.35 Å²

Cn1c(N)nc2c(ncn2[C@@H]2O[C@H](CO)[C@@H](O)[C@H]2O)c1=O [1-Methylguanosine]
collision cross section (N2) ([1]; [M+H]+): 168.8 Å²
collision cross section (N2) ([1]; [M+Na]+): 180.8 Å²

Cc1cccc2ccccc12 [1-methylnaphthalene]
collision cross section (N2) ([1]; [M+H]+): 125.2 Å²

O=C(O)CNC(=O)c1ccccc1O [2-Hydroxy Hippuric Acid]
collision cross section (N2) ([1]; [M+Na]+): 154.87 Å²

COc1cc2c(cc1O)CC[C@@H]1[C@@H]2CC[C@]2(C)C(=O)CC[C@@H]12 [2-Methoxyestrone]
collision cross section (N2) ([1]; [M+H]+): 174.47 Å²
collision cross section (N2) ([1]; [M+Na]+): 201.71 Å²

CCCC(=O)C(=O)O [2-Oxovaleric Acid]
collision cross section (N2) ([1]; [M+Na]+): 131.64 Å²

O=C(O)C1=CC(=O)[C@@H](O)[C@H](O)C1 [3-Dehydroshikimic Acid]
collision cross section (N2) ([1]; [M+H]+): 132.73 Å²

NC(=O)NCCC(=O)O [3-Ureidopropionic Acid]
collision cross section (N2) ([1]; [M+Na]+): 135.8 Å²

Cc1ncc(CO)c(C(=O)O)c1O [4-Pyridoxate]
collision cross section (N2) ([1]; [M+H]+): 137.27 Å²
collision cross section (N2) ([1]; [M+Na]+): 151.78 Å²

CSC[C@H]1O[C@@H](n2cnc3c(N)ncnc32)[C@H](O)[C@@H]1O [5'-Methylthioadenosine]
collision cross section (N2) ([1]; [M+H]+): 173.03 Å²
collision cross section (N2) ([1]; [M+Na]+): 176.54 Å²

CCCCC/C=C\C/C=C\C/C=C\C=C\[C@@H](O)CCCC(=O)O [5S-HETE]
collision cross section (N2) ([1]; [M+Na]+): 188.21 Å²

Cn1cnc2[nH]c(N)nc(=O)c21 [7-Methylguanine]
collision cross section (N2) ([1]; [M+H]+): 134.33 Å²
collision cross section (N2) ([1]; [M+Na]+): 149.72 Å²

CCCCC/C=C\C[C@@H](O)/C=C/C=C\C/C=C\CCCC(=O)O [12R-HETE]
collision cross section (N2) ([1]; [M+Na]+): 194.4 Å²

CCCCCC(O)/C=C/C=C\CCCCCCCC(=O)O (configuration not stated) [13-HODE]
collision cross section (N2) ([1]; [M+Na]+): 191.83 Å²

CCCCCCCC/C=C\CCCCCCCC(=O)OC[C@@H](O)COP(=O)([O-])OCC[N+](C)(C)C [18:1 Lyso PC]
collision cross section (N2) ([1]; [M+Na]+): 239.53 Å²

CC1=CC(=O)CC(C)(C)C1(O)/C=C/C(C)=C\C(=O)O (configuration not stated) [Abscisic Acid]
collision cross section (N2) ([1]; [M+H]+): 160.56 Å²
collision cross section (N2) ([1]; [M+Na]+): 176.18 Å²

CC(=O)OP(=O)(O)O [Acetyl Phosphate]
collision cross section (N2) ([1]; [M+Na]+): 125.44 Å²

CC(=O)N[C@@H](CC(=O)O)C(=O)O [N-Acetyl-L-aspartic acid]
collision cross section (N2) ([2]; [M+Na]+): 139 Å²
collision cross section (N2) ([2]; [M-H]-): 129.21 Å²

CC(=O)N[C@@H](Cc1ccccc1)C(=O)O [N-Acetyl-L-phenylalanine]
collision cross section (N2) ([2]; [M+Na]+): 149.8 Å²
collision cross section (N2) ([2]; [M-H]-): 144.2 Å²

CC(=O)N[C@@H](CC(=O)O)C(=O)N[C@@H](CCC(=O)O)C(=O)O [N-Acetylaspartylglutamate (NAAG)]
collision cross section (N2) ([2]; [M+Na]+): 166.3 Å²

CC(=O)N[C@@H](CC(=O)O)C(=O)N[C@@H](CCC(=O)O)C(=O)O [N-Acetylaspartylglutamate]
collision cross section (N2) ([2]; [M-H2O-H]-): 156.77 Å²

CC(=O)N[C@@H](CCC(N)=O)C(=O)O [N-Acetylglutamine]
collision cross section (N2) ([2]; [M+Na]+): 144.4 Å²
collision cross section (N2) ([2]; [M-H]-): 136.82 Å²

CSCC[C@H](NC=O)C(=O)O [N-Formylmethionine]
collision cross section (N2) ([2]; [M-H]-): 134.09 Å²

NC(=O)c1ccc[n+]([C@@H]2O[C@H](COP(=O)(O)OP(=O)(O)OC[C@H]3O[C@@H](n4cnc5c(N)ncnc54)[C@H](OP(=O)(O)O)[C@@H]3O)[C@@H](O)[C@H]2O)c1 [Nicotinamide adenine dinucleotide phosphate (NADP)]
collision cross section (N2) ([2]; [M+H]+): 230.9 Å²

NC(=O)c1ccc[n+]([C@@H]2O[C@H](COP(=O)(O)OP(=O)(O)OC[C@H]3O[C@@H](n4cnc5c(N)ncnc54)[C@H](OP(=O)(O)O)[C@@H]3O)[C@@H](O)[C@H]2O)c1 [Nicotinamide adenine dinucleotide phosphate]
collision cross section (N2) ([2]; [M-H]-): 228.27 Å²

NC(=O)c1ccc[n+]([C@@H]2O[C@H](COP(=O)([O-])O)[C@@H](O)[C@H]2O)c1 [Nicotinamide ribotide]
collision cross section (N2) ([2]; [M+H]+): 165.2 Å²

NC[C@H](O)c1ccc(O)c(O)c1 [Norepinephrine]
collision cross section (N2) ([2]; [M+H-H2O]+): 137.3 Å² and 136.8 Å²
collision cross section (N2) ([2]; [M-H]-): 131.99 Å²

NCCOP(=O)(O)O [O-Phosphoethanolamine]
collision cross section (N2) ([2]; [M-H]-): 121.6 Å²

N[C@@H](Cc1ccc(OP(=O)(O)O)cc1)C(=O)O [O-Phosphotyrosine]
collision cross section (N2) ([2]; [M+H]+): 162.2 Å²
collision cross section (N2) ([2]; [M+Na-2H]-): 149.33 Å²

CCCCCCCC(=O)SCCNC(=O)CCNC(=O)[C@H](O)C(C)(C)COP(=O)(O)OP(=O)(O)OC[C@H]1O[C@@H](n2cnc3c(N)ncnc32)[C@H](O)[C@@H]1OP(=O)(O)O [Octanoyl-CoA]
collision cross section (N2) ([2]; [M-H]-): 268.72 Å²

CCCCCCCCCCCCCCCC(=O)SCCNC(=O)CCNC(=O)[C@H](O)C(C)(C)COP(=O)(O)OP(=O)(O)OC[C@H]1O[C@@H](n2cnc3c(N)ncnc32)[C@H](O)[C@@H]1OP(=O)(O)O [Palmitoyl CoA]
collision cross section (N2) ([2]; [M+H]+): 296.2 Å²
collision cross section (N2) ([2]; [M-H]-): 296.46 Å²

CC(C)(CO)[C@@H](O)C(=O)NCCC(=O)O [Pantothenate]
collision cross section (N2) ([2]; [M+H]+): 148.1 Å²

O=C(O)c1ccc(O)c(O)c1 [Protocatechuic acid]
collision cross section (N2) ([2]; [M+H-H2O]+): 122.3 Å²

Cc1ncc(COP(=O)(O)O)c(CN)c1O [Pyridoxamine 5'-phosphate]
collision cross section (N2) ([2]; [M+H]+): 150.9 Å²

O=c1c(O)c(-c2ccc(O)c(O)c2)oc2cc(O)cc(O)c12 [Quercetin]
collision cross section (N2) ([2]; [M+H]+): 166.7 Å²
collision cross section (N2) ([2]; [M-H]-): 158.98 Å²

O=C(O)c1cccnc1C(=O)O [Quinolinate]
collision cross section (N2) ([2]; [M+H-H2O]+): 130.5 Å²

CC1=C(/C=C/C(C)=C/C=C/C(C)=C/C=O)C(C)(C)CCC1 [Retinene]
collision cross section (N2) ([2]; [M+H]+): 170.1 Å²

Cc1cc2nc3c(=O)[nH]c(=O)nc-3n(C[C@H](O)[C@H](O)[C@H](O)CO)c2cc1C [Riboflavin (Vitamin B2)]
collision cross section (N2) ([2]; [M+H]+): 188.3 Å²
collision cross section (N2) ([2]; [M-H]-): 184.12 Å²

CSC[C@H]1O[C@@H](n2cnc3c(N)ncnc32)[C@H](O)[C@@H]1O [S-Methyl-5'-thioadenosine]
collision cross section (N2) ([2]; [M+H]+): 162.5 Å²

O=C(O)CNC(=O)c1ccccc1O [Salicyluric acid]
collision cross section (N2) ([2]; [M-H]-): 133.01 Å²

C[C@H](O)C(=O)C1=Nc2c([nH]c(N)nc2=O)NC1 [Sepiapterin]
collision cross section (N2) ([2]; [M+H]+): 152.8 Å²
collision cross section (N2) ([2]; [M-H2O-H]-): 144.47 Å²

NCCCCNCCCN [Spermidine]
collision cross section (N2) ([2]; [M+H]+): 131.9 Å²

CCCCCCCCCCCCCCCCCC(N)=O [Stearamide]
collision cross section (N2) ([2]; [M+H]+): 188.3 Å²

CCCCCCCCCCCCCCCCCC(=O)O[C@H](CC(=O)[O-])C[N+](C)(C)C [Stearoylcarnitine]
collision cross section (N2) ([2]; [M+H]+): 221.1 Å²

C[C@H](CCC(=O)NCCS(=O)(=O)O)[C@H]1CC[C@H]2[C@@H]3[C@H](O)C[C@@H]4C[C@H](O)CC[C@]4(C)[C@H]3CC[C@]12C [Taurochenodeoxycholate]
collision cross section (N2) ([2]; [M+Na]+): 207.4 Å²
collision cross section (N2) ([2]; [M-H]-): 205.39 Å²

C[C@H](CCC(=O)NCCS(=O)(=O)O)[C@H]1CC[C@H]2[C@@H]3CC[C@@H]4C[C@H](O)CC[C@]4(C)[C@H]3C[C@H](O)[C@]12C [Taurodeoxycholic acid]
collision cross section (N2) ([2]; [M+H]+): 204.5 Å²
collision cross section (N2) ([2]; [M-H]-): 204.37 Å²

C[C@H](CCC(=O)NCCS(=O)(=O)O)[C@H]1CC[C@H]2[C@@H]3CC[C@@H]4C[C@H](O)CC[C@]4(C)[C@H]3CC[C@]12C [Taurolithocholic acid]
collision cross section (N2) ([2]; [M+H-H2O]+): 220.6 Å²
collision cross section (N2) ([2]; [M-H]-): 204.62 Å²

O=C(O)CCCCC1CCSS1 (configuration not stated) [Thioctic acid]
collision cross section (N2) ([2]; [M+H-H2O]+): 133.8 Å²

OC[C@H]1O[C@H](O[C@H]2O[C@H](CO)[C@@H](O)[C@H](O)[C@H]2O)[C@H](O)[C@@H](O)[C@@H]1O [Trehalose]
collision cross section (N2) ([2]; [M+Na]+): 174.9 Å²

CCCCCCCCCCCCC(=O)O [Tridecanoic acid]
collision cross section (N2) ([2]; [M-H]-): 155.16 Å²

CCCCCCCCCCC(=O)O [Undecanoic Acid]
collision cross section (N2) ([2]; [M-H]-): 148.87 Å²

O=c1ccn([C@@H]2O[C@H](COP(=O)(O)O)[C@@H](O)[C@H]2O)c(=O)[nH]1 [Uridine 5'-monophosphate]
collision cross section (N2) ([2]; [M+Na]+): 171.8 Å²

O=C(O)/C=C/c1cnc[nH]1 [Urocanic acid]
collision cross section (N2) ([2]; [M+H]+): 134.1 Å²
collision cross section (N2) ([2]; [M-H]-): 118.78 Å²

O=P(O)(O)OC1O[C@H](CO)[C@@H](O)[C@H](O)[C@H]1O (stereo partly drawn) [a-D-Galactose 1-phosphate]
collision cross section (N2) ([2]; [M+Na]+): 157.5 Å²
collision cross section (N2) ([2]; [M-H]-): 145.32 Å²

C[C@]12CC[C@@H]3c4ccc(O)cc4CC[C@H]3[C@@H]1CC[C@@H]2O [beta-Estradiol]
collision cross section (N2) ([2]; [M+H-H2O]+): 159.7 Å²

NC(=O)c1ccc[n+]([C@@H]2O[C@H](COP(=O)([O-])O)[C@@H](O)[C@H]2O)c1 [beta-Nicotinamide D-ribonucleotide]
collision cross section (N2) ([2]; [M]+): 165.2 Å²

Nc1nc(=O)c2ncn([C@H]3C[C@H](O)[C@@H](COP(=O)(O)OP(=O)(O)O)O3)c2[nH]1 [dGDP]
collision cross section (N2) ([2]; [M+H]+): 187.7 Å²

CSCC[C@H](NC(=O)CC[C@H](N)C(=O)O)C(=O)O [gamma-Glutamylmethionine]
collision cross section (N2) ([2]; [M+H]+): 165.1 Å²

O=C(O)/C=C/c1ccccc1O [trans-2-Hydroxycinnamic acid]
collision cross section (N2) ([2]; [M+H-H2O]+): 124.1 Å²

C[C@]12CC[C@H](O)CC1=CC[C@@H]1[C@@H]2CC[C@]2(C)C(=O)CC[C@@H]12 [trans-Dehydroandrosterone]
collision cross section (N2) ([2]; [M+H-H2O]+): 166 Å²
collision cross section (N2) ([2]; [M-H]-): 175.34 Å²

CCCCCC/C=C/CCCCCCCCCC(=O)O [trans-Vaccenic acid]
collision cross section (N2) ([2]; [M-H]-): 174.95 Å²
